Experiment: Half life was evaluated
Assay type: ADME

A half-life of 7 h was found for `O=C([C@@H]1C2CCC(CC2)N1C(=O)[C@@H]1C[C@@H]1c1ccccc1)N1CCCC1` in this work.

From ChEMBL document CHEMBL1129340, “New prolyl endopeptidase inhibitors: in vitro and in vivo activities of azabicyclo[2.2.2]octane, azabicyclo[2.2.1]heptane, and perhydroindole derivatives” (J Med Chem, 1996)
